# Measured values as given in patent US20250099466A1 (BRISTOL-MYERS SQUIBB COMPANY, priority 2021, published 2025).
# “Also recorded” adds a separate entry of the source.
# Experiments:
# [1] = system: subjects undergoing elective total knee replacement surgery; assay: Phase 2 study after elective total knee replacement: bleeding events (safety); type: in vivo, human; conditions: safety set, on-treatment
# Description: The principal safety outcome was any bleeding, which was defined as the composite of major, clinically relevant nonmajor, and minimal bleeding. Secondary safety outcomes were: (a) major bleeding, (b) clinically relevant nonmajor bleeding, (c) clinically relevant bleeding, defined as the composite of major and clinically relevant nonmajor bleeding, and (d) minimal bleeding. Bleeding was classified as major if it was overt and associated with a decrease in hemoglobin of 2 g/dL or more or necessitated transfusion of 2 or more units of blood with a temporal association within 24 to 48 hours of the bleed; or if it occurred in a critical area or organ or contributed to death. […] Overt bleeding not meeting the criteria for major bleeding, but that necessitated medical examination or intervention or had clinical consequences, was classified as clinically relevant nonmajor bleeding. Bleeding not meeting the criteria for major or clinically relevant nonmajor bleeding was classified as minimal bleeding (Schulman et al., Definition of major bleeding in clinical investigations of antihemostatic medicinal products in surgical patients. J Thromb Haemost 2010; 8:202-4).
# Analysis of safety outcomes was performed in the safety population, which included all randomized patients who received at least one dose of study medication; the time for analysis included the on-treatment period plus 2 days. For each bleeding outcome, the rate in each milvexian group was compared with that in the enoxaparin group with the same methods used for evaluation of the secondary efficacy outcomes. The Kaplan-Meier method was used to assess the time to the first occurrence of any bleeding with milvexian or enoxaparin.
# The key secondary objective of the study was to assess the dose-response trend of milvexian for the occurrence of Any Bleeding events during the treatment period. Any Bleeding was defined as the composite of major bleeding according to the International Society on Thrombosis and Haemostasis (ISTH) criteria modified for the surgical setting, clinically relevant nonmajor bleeding events or minimal bleeding events as assessed by the clinical events committee (CEC).
# aPTT, TT, and PT = assay: Ex vivo aPTT, TT and PT in ECAT rabbits; design: species or system rabbit
# Experimental: Integrated blood flow, thrombus weight, aPTT (activated partial thromboplastin time), TT (thrombin time), and PT (prothrombin time) were also measured.
# Half-life of milvexian = conditions: human, in vivo
# aPTT = aPTT prolongation in healthy volunteers; type: in vivo, human; conditions: 50-mg once daily dose, for about 24 hours
# [2] = milvexian 50 mg BID, listed as Milvexian
# [3] = milvexian 100 mg BID, listed as Milvexian
# [4] = milvexian 200 mg once daily, listed as Milvexian
# [5] = milvexian all regimens combined
# [6] = milvexian combined BID regimens
smiles,measurement,setting,value
"C[C@@H]1CCC[C@H](n2cnc(-c3cc(Cl)ccc3-n3cc(Cl)nn3)cc2=O)c2cc(ccn2)-c2c(cnn2C(F)F)NC1=O [milvexian, (5R,9S)-9-(4-(5-chloro-2-(4-chloro-1H-1,2,3-triazol-1-yl)phenyl)-6-oxopyrimidin-1(6H)-yl)-21-(difluoromethyl)-5-methyl-21H-3-aza-1(4,2)-pyridina-2(5,4)-pyrazolacyclononaphan-4-one]",Any Bleeding %,[1]; milvexian 25 mg BID,1.4%
same,Any Bleeding RR vs Enox,[1]; milvexian 25 mg BID,0.33
same,Any Bleeding n,[1]; milvexian 25 mg BID,2 n
same,Major+CRNM bleeding %,[1]; milvexian 25 mg BID,0%
same,Major+CRNM bleeding n,[1]; milvexian 25 mg BID,0 n
same,Minimal Bleeding %,[1]; milvexian 25 mg BID,(1.4%)
same,Minimal Bleeding RR vs Enox,[1]; milvexian 25 mg BID,0.50
same,Minimal Bleeding n,[1]; milvexian 25 mg BID,2 n
same,Any Bleeding %,"[1]; milvexian 25 mg BID, listed as Milvexian",(1.4%)
same,Any Bleeding %,[1]; milvexian 25 mg once daily,0%
same,Any Bleeding n,[1]; milvexian 25 mg once daily,0 n
same,Major+CRNM bleeding n,[1]; milvexian 25 mg once daily,0 n
same,Minimal Bleeding n,[1]; milvexian 25 mg once daily,0 n
same,Any Bleeding %,[1]; milvexian 50 mg BID,4.7%
same,Any Bleeding RR vs Enox,[1]; milvexian 50 mg BID,1.15
same,Any Bleeding n,[1]; milvexian 50 mg BID,7 n
same,Major+CRNM bleeding %,[1]; milvexian 50 mg BID,1.4%
same,Major+CRNM bleeding RR vs Enox,[1]; milvexian 50 mg BID,0.79
same,Major+CRNM bleeding n,[1]; milvexian 50 mg BID,2 n
same,Minimal Bleeding %,[1]; milvexian 50 mg BID,(3.4%)
same,Minimal Bleeding RR vs Enox,[1]; milvexian 50 mg BID,1.23
same,Minimal Bleeding n,[1]; milvexian 50 mg BID,5 n
same,Any Bleeding %,[1]; [2],(4.7%)
same,Major+CRNM bleeding %,[1]; [2],(1.4%)
same,Any Bleeding %,[1]; milvexian 50 mg once daily,(5.3%)
same,Any Bleeding RR vs Enox,[1]; milvexian 50 mg once daily,1.17
same,Any Bleeding n,[1]; milvexian 50 mg once daily,8 n
same,Major+CRNM bleeding %,[1]; milvexian 50 mg once daily,1.3%
same,Major+CRNM bleeding RR vs Enox,[1]; milvexian 50 mg once daily,0.68
same,Major+CRNM bleeding n,[1]; milvexian 50 mg once daily,2 n
same,Minimal Bleeding %,[1]; milvexian 50 mg once daily,(4.0%)
same,Minimal Bleeding RR vs Enox,[1]; milvexian 50 mg once daily,1.35
same,Minimal Bleeding n,[1]; milvexian 50 mg once daily,6 n
same,Major+CRNM bleeding %,"[1]; milvexian 50 mg once daily, listed as Milvexian",(1.3%)
same,Any Bleeding %,[1]; milvexian 100 mg BID,4.7%
same,Any Bleeding RR vs Enox,[1]; milvexian 100 mg BID,1.14
same,Any Bleeding n,[1]; milvexian 100 mg BID,7 n
same,Major+CRNM bleeding %,[1]; milvexian 100 mg BID,0.7%
same,Major+CRNM bleeding RR vs Enox,[1]; milvexian 100 mg BID,0.39
same,Major+CRNM bleeding n,[1]; milvexian 100 mg BID,1 n
same,Minimal Bleeding %,[1]; milvexian 100 mg BID,(4.7%)
same,Minimal Bleeding RR vs Enox,[1]; milvexian 100 mg BID,1.71
same,Minimal Bleeding n,[1]; milvexian 100 mg BID,7 n
same,Any Bleeding %,[1]; [3],(4.7%)
same,Major+CRNM bleeding %,[1]; [3],(0.7%)
same,Any Bleeding %,[1]; milvexian 200 mg BID,(3.4%)
same,Any Bleeding RR vs Enox,[1]; milvexian 200 mg BID,0.81
same,Any Bleeding n,[1]; milvexian 200 mg BID,5 n
same,Major+CRNM bleeding %,[1]; milvexian 200 mg BID,0.7%
same,Major+CRNM bleeding RR vs Enox,[1]; milvexian 200 mg BID,0.39
same,Major+CRNM bleeding n,[1]; milvexian 200 mg BID,1 n
same,Minimal Bleeding %,[1]; milvexian 200 mg BID,(2.7%)
same,Minimal Bleeding RR vs Enox,[1]; milvexian 200 mg BID,0.96
same,Minimal Bleeding n,[1]; milvexian 200 mg BID,4 n
same,Major+CRNM bleeding %,"[1]; milvexian 200 mg BID, listed as Milvexian",(0.7%)
same,Any Bleeding %,[1]; milvexian 200 mg once daily,6.1%
same,Any Bleeding RR vs Enox,[1]; milvexian 200 mg once daily,1.51
same,Any Bleeding n,[1]; milvexian 200 mg once daily,9 n
same,Major+CRNM bleeding %,[1]; milvexian 200 mg once daily,0.7%
same,Major+CRNM bleeding RR vs Enox,[1]; milvexian 200 mg once daily,0.40
same,Major+CRNM bleeding n,[1]; milvexian 200 mg once daily,1 n
same,Minimal Bleeding %,[1]; milvexian 200 mg once daily,(5.4%)
same,Minimal Bleeding RR vs Enox,[1]; milvexian 200 mg once daily,2.01
same,Minimal Bleeding n,[1]; milvexian 200 mg once daily,8 n
same,Any Bleeding %,[1]; [4],(6.1%)
same,Major+CRNM bleeding %,[1]; [4],(0.7%)
same,Any Bleeding %,[1]; [5],4.1%
same,Any Bleeding n,[1]; [5],38 n
same,Any bleeding RR (CI) vs enoxaparin,[1]; [5],0.99 (0.53-1.85)
same,Clinically relevant non-major Bleeding %,[1]; [5],0.8%
same,Clinically relevant non-major Bleeding RR (CI) vs enoxaparin,[1]; [5],0.55 (0.16-1.85)
same,Clinically relevant non-major Bleeding n,[1]; [5],7 n
same,Major Bleeding n,[1]; [5],no major bleeds; also recorded: No CEC adjudicated major bleeding
same,Major bleeding or CRNM Bleeding RR (CI) vs enoxaparin,[1]; [5],0.44 (0.14-1.35)
same,Major+CRNM bleeding %,[1]; [5],0.8%
same,Major+CRNM bleeding n,[1]; [5],7 n
same,Minimal Bleeding %,[1]; [5],3.5%
same,Minimal Bleeding RR (CI) vs enoxaparin,[1]; [5],1.26 (0.59-2.67)
same,Minimal Bleeding n,[1]; [5],32 n
same,Major Bleeding n,"[1]; milvexian all regimens combined, listed as Milvexian",0 n
same,Any Bleeding %,[1]; [6],3.5%
same,Any Bleeding n,[1]; [6],21 n
same,Any bleeding RR (CI) vs enoxaparin,[1]; [6],0.86 (0.43-1.71)
same,Clinically relevant non-major Bleeding %,[1]; [6],0.7%
same,Clinically relevant non-major Bleeding RR (CI) vs enoxaparin,[1]; [6],0.49 (0.12-1.96)
same,Clinically relevant non-major Bleeding n,[1]; [6],4 n
same,Major Bleeding n,[1]; [6],0 n
same,Major bleeding or CRNM Bleeding RR (CI) vs enoxaparin,[1]; [6],0.39 (0.11-1.44)
same,Major+CRNM bleeding %,[1]; [6],0.7%
same,Major+CRNM bleeding n,[1]; [6],4 n
same,Minimal Bleeding %,[1]; [6],3.0%
same,Minimal Bleeding RR (CI) vs enoxaparin,[1]; [6],1.10 (0.49-2.49)
same,Minimal Bleeding n,[1]; [6],18 n
same,ex vivo PT,"aPTT, TT, and PT; prevention ECAT rabbits",did not alter TT and PT significantly
same,ex vivo TT,"aPTT, TT, and PT; prevention ECAT rabbits",did not alter TT and PT significantly
same,ex vivo aPTT,"aPTT, TT, and PT; prevention ECAT rabbits",elevated aPTT significantly at the highest 2 doses
same,prolongation of aPTT needed to achieve 50% thrombus weight reduction,"aPTT, TT, and PT; rabbit ECAT",1.6 fold
same,half-life,Half-life of milvexian,~11 h
same,prolongation of aPTT,aPTT,1.5 fold
